# According to patent US11718619B2, “Isoxazolyl-carbonyloxy azabicyclo[3.2.1]octanyl compounds as FXR activators” (ARDELYX, INC., priority 2016, dated 2023):
# What was measured:
# [1] = molecular target: human Famesoid X receptor ligand-binding domain/Gal4 DNA binding domain chimera (Homo sapiens (Human), UniProt Q96RI1); assay: Cellular FXR beta-lactamase reporter assay (FXR-UAS-bla HEK 293T); assay type: cell-based; conditions: for Emax: HEK-293T, read-out: % Efficacy; for EC50: read-out: FXR pEC50 (converted); for % Efficacy: extent of activation relative to GW4064
# Experimental: FXR activation was measured using a cell line and procedure obtained from Life Technologies (Cat #K1691). FXR-UAS-&/a HEK 293T cells contain a human Famesoid X receptor ligand-binding domain/Gal4 DNA binding domain chimera stably integrated into the CellSensor® UAS-bla HEK293T cell line. The CellSensor® UAS-bla HEK293T contains a beta-lactamase reporter gene under control of a UAS response element stably integrated into HEK 293T cells. Activation of FXR by bound ligands results in transcriptional activation of the beta-lactamase reporter gene, which is detected via assay of beta-lactamase activity.
# Cells are harvested and diluted into assay medium containing phenol red-free DMEM supplemented with 2% Charcoal-stripped FBS, pyruvate, non-essential amino acids. Cells are then transferred to a 384 well assay plate. Test compounds are dissolved in DMSO and a 3-fold serial dilution series is generated, then further diluted into assay medium. Compounds in assay medium are added to cells in the 384 well plate and allowed to incubate 16 h at 37 C in the presence of 5% CO2.
# A FRET-based […] (CCF4) is loaded into cells as its acetomethoxy ester. Intracellular esterases liberate free CCF4, a cephalosporin core linking 7-hydroxycoumarin to fluorescein. In the presence of beta-lactamase activity produced in the presence of FXR agonists, cleavage of CCF4 spatially separates the two dyes and disrupts FRET, so that exciting the coumarin at 409 nm now produces a blue fluorescence signal at 447 nm. The change in FRET signal is plotted against the test compound concentration and fit to a 3-parameter logistical equation.
# [2] = molecular target: ligand binding domain of human FXR (Homo sapiens (Human), UniProt Q96RI1); assay: FXR ligand binding assay (LanthaScreen FRET); conditions: for % Efficacy: extent of activation relative to GW4064; for Emax: read-out: % Efficacy
# Experimental: The affinity of FXR ligands for the ligand binding domain of FXR was determined using a commercially available human FXR ligand binding assay (LanthaScreen, Thermofisher Cat #PV4833). […] Binding of FXR ligands to the FXR ligand binding domain promotes binding of the fluorescein-labelled SRC2-2 peptide. This causes a FRET signal between the terbium-labelled anti-GST antibody and the fluorescein-labelled SRC peptide which are both bound to the FXR ligand binding domain.
# Test compounds are dissolved in DMSO and a 3-fold serial dilution series is generated, then further diluted into assay buffer. The compounds are mixed with 5 nM GST-tagged FXR ligand binding domain, 5 nM Tb-labelled anti-GST antibody and 500 nM fluorescein-labelled SRC2-2 peptide in a pH 7.4 buffer. The reaction is incubated at room temperature for 1 hour, then the FRET signal is measured as the ratio of the 520 nm/495 nm emission following excitation at 340 nm. The change in FRET signal is plotted against the test article concentration and fit to a 3-parameter logistical equation.
# [3] = system: fibroblast growth factor 19 (FGF19) secretion in human ileum; assay: Human Ileum APECCS (FGF19); assay type: cell-based; conditions: relative to GW4064
# [4] = system: C57BL/6 male mice fed a Western diet; assay: Western diet study; assay type: in vivo, C57BL/6 mice
# Experimental: Six-week-old C57BL/6 male mice were fed a Western diet (WD) (62% fat/0.2% cholesterol). […] An additional control group (lean) was fed a standard rodent chow throughout the study. Body weight measurements and serum samples (tail bleed) were taken weekly. After 6 weeks of treatment, all animals were sacrificed and hepatosteatosis-related endpoints and other liver markers were measured.
# Total RNA from mouse tissues was isolated and used for library preparation. Library samples were multiplexed ahead of mRNA sequencing.
# Sequence of ligand binding domain of human FXR (Q96RI1 262-486): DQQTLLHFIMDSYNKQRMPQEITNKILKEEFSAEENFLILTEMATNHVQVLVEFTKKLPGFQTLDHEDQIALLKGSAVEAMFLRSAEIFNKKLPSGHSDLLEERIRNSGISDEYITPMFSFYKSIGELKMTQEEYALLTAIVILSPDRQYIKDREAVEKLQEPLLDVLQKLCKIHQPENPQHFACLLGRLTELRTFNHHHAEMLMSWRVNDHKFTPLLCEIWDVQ
# Sequence of human Famesoid X receptor ligand-binding domain/Gal4 DNA binding domain chimera (Q96RI1 262-486, stated change not applied): as the sequence (Q96RI1 262-486) above
Compound,Emax [1] [%],EC50 [1] [µM],Emax [2] [%],further results
"2-[(1R,3S,5S)-3-(5-cyclopropyl-3-{4-methoxybicyclo[2.2.2]octan-1-yl}-1,2-oxazole-4-carbonyloxy)-8-azabicyclo[3.2.1]octan-8-yl]-4-(trifluoromethoxy)-1,3-benzothiazole-6-carboxylic acid [Compound I-58]",–,–,–,"FXR pEC50 ([1]; pEC50 = −log EC50, 16 h incubation): >4.5; % Efficacy [2]: 22%; FXR pEC50 ([2]; pEC50 = −log EC50, FRET signal, SRC2-2 peptide): >4.4"
"CC(C)(C)c1onc(-c2c(Cl)cccc2Cl)c1C(=O)OC1C[C@H]2CC[C@@H](C1)N2c1nc2c(F)cc(C(=O)O)cc2s1 (single isomer, unassigned) [Compound I-25]",100,0.0251,56,–
"CC1(c2onc(-c3c(Cl)cccc3Cl)c2C(=O)OC2C[C@H]3CC[C@@H](C2)N3c2nc3c(F)cc(C(=O)O)cc3s2)CC1 (single isomer, unassigned) [Compound I-26]",106,0.0316,75,–
"O=C(O)c1cc(F)c2nc(N3[C@@H]4CC[C@H]3C[C@@H](OC(=O)c3c(-c5ccccc5)noc3C3CC3)C4)sc2c1 [Compound I-13, 2-[(1R,3R,5S)-3-(5-Cyclopropyl-3-phenyl-1,2-oxazole-4-carbonyloxy)-8-azabicyclo[3.2.1]octan-8-yl]-4-fluoro-1,3-benzothiazole-6-carboxylic acid]",93,1,40,–
"O=C(O)c1cc(F)c2nc(N3[C@@H]4CC[C@H]3C[C@@H](OC(=O)c3c(-c5ccccc5OC(F)(F)F)noc3C3CC3)C4)sc2c1 [Compound I-14, 2-[(1R,3R,5S)-3-{5-cyclopropyl-3-[2-(trifluoromethoxy)phenyl]-1,2-oxazole-4-carbonyloxy}-8-azabicyclo[3.2.1]octan-8-yl]-4-fluoro-1,3-benzothiazole-6-carboxylic acid]",116,0.00794,147,–
"O=C(O)c1cc(F)c2nc(N3[C@@H]4CC[C@H]3C[C@@H](OC(=O)c3c(-c5c(Cl)cccc5OC(F)F)noc3C3CC3)C4)sc2c1 [Compound I-15, 2-[(1R,3R,5S)-3-{3-[2-chloro-6-(difluoromethoxy)phenyl]-5-cyclopropyl-1,2-oxazole-4-carbonyloxy}-8-azabicyclo[3.2.1]octan-8-yl]-4-fluoro-1,3-benzothiazole-6-carboxylic acid]",108,0.0398,71,–
"O=C(O)c1cc(F)c2nc(N3[C@@H]4CC[C@H]3C[C@@H](OC(=O)c3c(-c5c(F)cccc5F)noc3C3CC3)C4)sc2c1 [Compound I-16, 2-[(1R,3R,5S)-3-[5-cyclopropyl-3-(2,6-difluorophenyl)-1,2-oxazole-4-carbonyloxy]-8-azabicyclo[3.2.1]octan-8-yl]-4-fluoro-1,3-benzothiazole-6-carboxylic acid]",110,0.2,47,–
"O=C(O)c1cc(F)c2nc(N3[C@@H]4CC[C@H]3C[C@@H](OC(=O)c3c(C5CCC6(CC5)CC6)noc3C3CC3)C4)sc2c1 [Compound I-19, 2-[(1R,3R,5S)-3-(5-cyclopropyl-3-{spiro[2.5]octan-6-yl}-1,2-oxazole-4-carbonyloxy)-8-azabicyclo[3.2.1]octan-8-yl]-4-fluoro-1,3-benzothiazole-6-carboxylic acid]",79,0.158,55,–
"O=C(O)c1cc(F)c2nc(N3[C@@H]4CC[C@H]3C[C@@H](OC(=O)c3c(C56CCC(CC5)CC6)noc3C3CC3)C4)sc2c1 [Compound I-20, 2-[(1R,3R,5S)-3-(3-{Bicyclo[2.2.2]octan-1-yl}-5-cyclopropyl-1,2-oxazole-4-carbonyloxy)-8-azabicyclo[3.2.1]octan-8-yl]-4-fluoro-1,3-benzothiazole-6-carboxylic acid]",–,–,–,% Efficacy [1]: 22%
"Cc1onc(-c2c(Cl)cccc2Cl)c1C(=O)O[C@H]1C[C@H]2CC[C@@H](C1)N2c1nc2c(F)cc(C(=O)O)cc2s1 [Compound I-23, 2-[(1R,3S,5S)-3-[3-(2,6-dichlorophenyl)-5-methyl-1,2-oxazole-4-carbonyloxy]-8-azabicyclo[3.2.1]octan-8-yl]-4-fluoro-1,3-benzothiazole-6-carboxylic acid]",100,0.158,37,–
"O=C(O)c1cc(F)c2nc(N3[C@@H]4CC[C@H]3C[C@@H](OC(=O)c3c(-c5c(Cl)cccc5Cl)noc3C3CCC3)C4)sc2c1 [Compound I-24, 2-[(1R,3R,5S)-3-[5-cyclobutyl-3-(2,6-dichlorophenyl)-1,2-oxazole-4-carbonyloxy]-8-azabicyclo[3.2.1]octan-8-yl]-4-fluoro-1,3-benzothiazole-6-carboxylic acid]",98,0.0316,64,–
"O=C(O)c1cc(F)c2nc(N3[C@@H]4CC[C@H]3C[C@@H](OC(=O)c3c(-c5c(Cl)cccc5Cl)noc3C3(F)CC3)C4)sc2c1 [Compound I-27, 2-[(1R,3R,5S)-3-[3-(2,6-dichlorophenyl)-5-(1-fluorocyclopropyl)-1,2-oxazole-4-carbonyloxy]-8-azabicyclo[3.2.1]octan-8-yl]-4-fluoro-1,3-benzothiazole-6-carboxylic acid]",108,0.00398,107,–
"Cn1c(N2[C@@H]3CC[C@H]2C[C@@H](OC(=O)c2c(-c4c(Cl)cccc4Cl)noc2C2CC2)C3)nc2c(F)cc(C(=O)O)cc21 [Compound I-31, 2-[(1R,3R,5S)-3-[5-cyclopropyl-3-(2,6-dichlorophenyl)-1,2-oxazole-4-carbonyloxy]-8-azabicyclo[3.2.1]octan-8-yl]-4-fluoro-1-methyl-1H-1,3-benzodiazole-6-carboxylic acid]",100,0.398,–,–
"O=C(Cc1c(-c2c(Cl)cccc2Cl)noc1C1CC1)O[C@H]1C[C@H]2CC[C@@H](C1)N2c1nc2c(F)cc(C(=O)O)cc2s1 [Compound I-32, 2-[(1R,3R,5S)-3-({2-[5-cyclopropyl-3-(2,6-dichlorophenyl)-1,2-oxazol-4-yl]acetyl}oxy)-8-azabicyclo[3.2.1]octan-8-yl]-4-fluoro-1,3-benzothiazole-6-carboxylic acid]",86,0.398,34,–
"CCCS(=O)(=O)NC(=O)c1ccc(N2[C@@H]3CC[C@H]2C[C@@H](OC(=O)c2c(-c4c(Cl)cccc4Cl)noc2C2CC2)C3)cc1 [Compound I-45, (1R,3R,5S)-8-{4-[(propane-1-sulfonyl)carbamoyl]phenyl}-8-azabicyclo[3.2.1]octan-3-yl 5-cyclopropyl-3-(2,6-dichlorophenyl)-1,2-oxazole-4-carboxylate]",–,–,–,% Efficacy [1]: 128%; % Efficacy [2]: 130%
"CCCCCS(=O)(=O)NC(=O)c1ccc(N2[C@@H]3CC[C@H]2C[C@@H](OC(=O)c2c(-c4c(Cl)cccc4Cl)noc2C2CC2)C3)cc1 [Compound I-46, (1R,3R,5S)-8-{4-[(pentane-1-sulfonyl)carbamoyl]phenyl}-8-azabicyclo[3.2.1]octan-3-yl 5-cyclopropyl-3-(2,6-dichlorophenyl)-1,2-oxazole-4-carboxylate]",–,–,–,% Efficacy [1]: 110%; % Efficacy [2]: 146%
"O=C(NS(=O)(=O)C1CC1)c1ccc(N2[C@@H]3CC[C@H]2C[C@H](OC(=O)c2c(-c4c(Cl)cccc4Cl)noc2C2CC2)C3)cc1 [Compound I-48, (1R,3S,5S)-8-{4-[(cyclopropanesulfonyl)carbamoyl]phenyl}-8-azabicyclo[3.2.1]octan-3-yl 5-cyclopropyl-3-(2,6-dichlorophenyl)-1,2-oxazole-4-carboxylate]",–,–,–,% Efficacy [1]: 130%
CC(C)c1onc(-c2c(Cl)cccc2Cl)c1COc1ccc(/C=C/c2cccc(C(=O)O)c2)c(Cl)c1 [GW4064],–,–,–,"Activity, % (n) [3]: 100 ± 0 (154) %"
O=C(O)c1ccc([C@H]2C[C@@H]2c2ccc(OCc3c(-c4c(Cl)cccc4Cl)noc3C3CC3)cc2Cl)cc1 [Px-102],–,–,–,"liver Cyp7a1 gene expression [4]: downregulated; hepatosteatosis related endpoints (including liver triglycerides and liver cholesterol) ([4]; 6 weeks of treatment): normalized; macrovesicular steatosis (score) ([4]; 6 weeks of treatment): reduced; serum FGF15 concentration ([4]; 6 weeks of treatment): further increased; serum cholesterol ([4]; 6 weeks of treatment): reduced; Activity, % (n) ([2]; Human FXR Binding (FRET), relative to GW4064): 90 ± 15 (3) %"
